{"source": "patent US4910017A", "about": "“New compounds WF 2015 A and B” (Fujisawa Pharmaceutical Company, Ltd., priority 1987, dated 1990)", "key": {"Human MX-1 mammary": {"test_system": "Human MX-1 mammary", "assay": "TEST 5: antitumor activity in vivo (human MX-1 mammary in nude mice)", "set-up": "species or system human tumor in BALB/c nu/nu mice", "settings": "day 0→4, 7→11, 14→18, evaluated day 21, n = 8", "method": "Human MX-1 mammary (each fragment, 3×3×3 mm), maintained s.c. by serial passage in female BALB/c nu/nu mice aged 6 weeks was implanted s.c. to female BALB/c nu/nu mice on day 0, and WF 2015 A or vehicle were given i.v. to the mice once a day on specified days (day0→4, day 7→11 and day 14→18).\nTumor weight was calculated as follows: (Tumor length and width were measured by caliper.)\nTumor weight (mg)=1/2×a×b^2, where a represents length and b represents width (mm).\nTumor weights (initial) and (last) were calculated on the first injection day (just before dosing) and on day 21, (the last evaluation day), respectively.\nEight mice were used for each test group and each vehicle-treated control group, respectively.\nDrug efficacy was expressed as tumor growth inhibition (%)."}, "[1]": {"test_system": "Mouse fibrosarcoma Meth A", "assay": "TEST 1: antitumor activity of WF 2015 A in experimental tumor system in mice (Meth A)", "format": "in vivo, mouse (Balb/c)", "settings": "at 14 days, mean ± S.E., n = 5, Control 1136.6 ± 138.3", "method": "The antitumor activity of WF 2015 A was determined in experimental tumor system in mice.\nMouse fibrosarcoma Meth A was implanted intradermally into Balb/c mice (female, 8 weeks age) at an inoculum size of 1×10^5 cells per mouse. Twenty-four hours after the implantation of tumor cells, graded doses of WF 2015 A were administered to the mice intravenously. Treatments were once a day on day 1, 2, 3, 4 and 7, 8, 9, 10 after the tumor inoculation. Control animals received intravenous doses of physiological saline solution. The injection volume was 0.2 ml in all experiments. Five mice were used for each experimental group.\nTumor weight at 14 days after administration, as derived from caliper measurements of the length and width of tumors, was calculated by the formula: Tumor weight (mg)=1/2×a×b^2, where a represents the length and b represents the width (mm)."}, "[2]": {"test_system": "Human lung adenocarcinoma A549 cell", "assay": "TEST 2: in vitro cytotoxicity of WF 2015, A549 cells", "format": "cell-based", "settings": "120 hours incubation, 37° C.", "method": "(§1) Human lung adenocarcinoma A549 cell and mouse lymphoma EL-4 cell were used in this study. A549 cells were propagated as monolayer culture in Dulbecco's medium supplemented with 10% heat inactivated fetal bovine serum (FBS), penicillin G (60 μg/ml) and streptomycin (20 μg/ml) and harvested by trypsinization. EL-4 cells were maintained in RPMI medium supplemented with 10% FBS and the antibiotics in culture flasks.\n(§2) Exponentially growing cells of A 549 or EL-4, which harvested from the cultures, were suspended in flask in the appropriate medium (Dulbecco's or RPMI medium supplemented with 10% FBS and antibiotics) at a concentration of 2×10^4 cells/ml or 2×10^5 cells/ml. respectively. Cells were treated with the graded doses of WF 2015 in plastic tissue culture dishes.\n(§3) Concentration of the substance required for 50% inhibition of cell growth (IC50 value, μg/ml) was determined by plotting the logarithm of the drug concentration versus the growth rate (percentage of control) of the treated cells after 120 hours incubation for A 549 cells and 48 hours incubation for EL-4 cells at 37° C. in humidified atmosphere of 5% carbon dioxide."}, "[3]": {"assay": "Solubility of WF 2015 A and B (physicochemical properties)"}, "mouse lymphoma EL-4 cell": {"test_system": "mouse lymphoma EL-4 cell", "assay": "TEST 2: in vitro cytotoxicity of WF 2015, EL-4 cells", "format": "cell-based", "settings": "48 hours incubation, 37° C.", "method": "as §1, §2, §3"}, "[4]": {"test_system": "C57BL/6 responder cells (mixed lymphocyte reaction)", "assay": "TEST 4: suppression of in vitro mixed lymphocyte reaction (MLR)", "format": "cell-based, mouse (C57BL/6, BALB/C)", "settings": "4080 min", "method": "The MLR tests were carried out in microtiter plates, with each well containing specified concentration of WF 2015 A and 5×10^5 C57BL/6 responder cells (H-2^b), 5×10^5 mitomycin C treated (25 μg/ml mitomycin C at 37° C. for 30 minutes) BALB/C stimulator cells (H-2^d) in 0.2 ml RPMI 1640 medium, supplemented with 10% fetal calf serum, 2mM glutamine, 3×10^-5 M 2-mercaptoethanol, 24 mM sodium bicarbonate, penicillin (50 unit/ml) and streptomycin (50 μ/ml). The cells were incubated at 37° C. in a humidified atmosphere of 5% CO2 :95% air for 68 hours and pulsed with ^3 H-thymidine (0.5 μCi) 4 hours before the cells were collected. Radio-activity of the cells was assayed by B-counter. From the resultant data, MLR suppression (%) was calculated."}, "ICR strain mice": {"test_system": "ICR strain mice", "assay": "TEST 3: acute toxicity of WF 2015 in mice", "format": "in vivo, mouse (ICR)", "settings": "100 mg/kg once a day for 5 days, 5 female ICR mice"}}, "data": [{"smiles": "CO[C@@H]1[C@H](OC(=O)/C=C/C(O)C(C)O)CC[C@]2(CO2)[C@H]1[C@@]1(C)O[C@@H]1CC=C(C)C", "note": "(some centres unmarked) [WF 2015 A]", "values": [{"measurement": "Tumor Growth Inhibition (%)", "setting": "Human MX-1 mammary; 10 mg/kg i.v. once a day", "result": 41.2, "unit": "%"}, {"measurement": "Tumor Growth Inhibition (%)", "setting": "Human MX-1 mammary; 30 mg/kg i.v. once a day", "result": 62.6, "unit": "%"}, {"measurement": "Tumor weight", "setting": "[1]; 1.0 mg/kg i.v. once a day on day 1, 2, 3, 4 and 7, 8, 9, 10", "result": "864 ± 108.7", "unit": "mg"}, {"measurement": "Tumor weight", "setting": "[1]; 3.3 mg/kg i.v. once a day on day 1, 2, 3, 4 and 7, 8, 9, 10", "result": "682 ± 131.5", "unit": "mg"}, {"measurement": "Tumor weight", "setting": "[1]; 10 mg/kg i.v. once a day on day 1, 2, 3, 4 and 7, 8, 9, 10", "result": "27.7 ± 105.6", "unit": "mg"}, {"measurement": "IC50 value (concentration required for 50% inhibition of cell growth)", "setting": "[2]", "result": 0.3, "unit": "ng/mL"}, {"measurement": "Solubility", "setting": "[3]; Chloroform, methanol, acetone, ethanol", "result": "Soluble"}, {"measurement": "Solubility", "setting": "[3]; n-Hexane, water", "result": "Insoluble"}, {"measurement": "IC50 value (concentration required for 50% inhibition of cell growth)", "setting": "mouse lymphoma EL-4 cell", "result": 0.65, "unit": "ng/mL"}, {"measurement": "MLR suppression (%)", "setting": "[4]; 0.0066 ng/ml", "result": 0.0, "unit": "%"}, {"measurement": "MLR suppression (%)", "setting": "[4]; 0.02 ng/ml", "result": 0.4, "unit": "%"}, {"measurement": "MLR suppression (%)", "setting": "[4]; 0.066 ng/ml", "result": 8.5, "unit": "%"}, {"measurement": "MLR suppression (%)", "setting": "[4]; 0.2 ng/ml", "result": 9.4, "unit": "%"}, {"measurement": "MLR suppression (%)", "setting": "[4]; 6.6 ng/ml", "result": 49.1, "unit": "%"}, {"measurement": "MLR suppression (%)", "setting": "[4]; 20 ng/ml", "result": 86.2, "unit": "%"}, {"measurement": "MLR suppression (%)", "setting": "[4]; 40 ng/ml", "result": 88.0, "unit": "%"}, {"measurement": "MLR suppression (%)", "setting": "[4]; 161 ng/ml", "result": 87.3, "unit": "%"}, {"measurement": "MLR suppression (%)", "setting": "[4]; 1,250 ng/ml", "result": 89.0, "unit": "%"}, {"measurement": "MLR suppression (%)", "setting": "[4]; 10,000 ng/ml", "result": 94.4, "unit": "%"}, {"measurement": "Acute toxicity, abnormal symptom of the mice", "setting": "ICR strain mice", "result": "no abnormal symptom of the mice was observed"}]}]}
